This note sets out measurements from patent publication US20230167070A1, “MODULATORS OF TREX1” (Constellation Pharmaceuticals, Inc., priority 2020, published 2023).

One test addresses T1, full length human TREX1 (Homo sapiens, UniProt Q9NSU2).
T1 construct: N-terminally His-Tev tagged full length human TREX1; made in house; host or cells: E. coli
T1 sequence (Q9NSU2 1-314): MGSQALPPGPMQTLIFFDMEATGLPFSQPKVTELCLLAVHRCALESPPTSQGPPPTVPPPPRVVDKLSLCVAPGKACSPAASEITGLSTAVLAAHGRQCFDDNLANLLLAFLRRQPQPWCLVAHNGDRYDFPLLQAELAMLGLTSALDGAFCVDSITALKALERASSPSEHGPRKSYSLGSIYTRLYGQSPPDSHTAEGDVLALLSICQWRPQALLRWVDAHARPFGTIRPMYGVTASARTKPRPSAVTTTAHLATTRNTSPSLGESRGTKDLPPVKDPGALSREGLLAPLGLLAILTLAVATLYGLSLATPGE
The test can be described thus: TREX1 Biochemical Assay (fluorescence, dsDNA substrate degradation). The conditions noted are these: 150 pM TREX1, 60 nM dsDNA substrate, 25 minutes at room temperature. How it is done:
Degradation of the dsDNA liberates free fluorophore to produce a fluorescent signal. Specifically, 7.5 μL of N-terminally His-Tev tagged full length human TREX1 (expressed in E. coli and purified in house) in reaction buffer (50 mM Tris (pH 7.4), 150 mM NaCl, 2 mM DTT, 0.1 mg/mL BSA, 0.01% (v/v) Tween-20 and 100 mM MgCl2) was added to a 384-well Black ProxiPlate Plus (Perkin Elmer) which already contained compound (150 nL) at varying concentrations as a 10 point dose-response in DMSO. To this was added 7.5 μL of dsDNA substrate (Strand A: 5′ TEX615/GCT AGG CAG 3′; Strand B: 5′ CTG CCT AGC/IAbRQSp (Integrated DNA Technologies)) in reaction buffer. Final concentrations were 150 pM TREX1, 60 nM dsDNA substrate in reaction buffer with 1.0% DMSO (v/v). After 25 minutes at room temperature, reactions were quenched by the addition of 5 μL of stop buffer (same as reaction buffer plus 200 mM EDTA). Final concentrations in the quenched reaction were 112.5 pM TREX1, 45 nM DNA and 50 mM EDTA in a volume of 20 μL. After a 5-minute incubation at room temperature, plates were read in a laser sourced Envision (Perkin-Elmer), measuring fluorescence at 615 nm following excitation w/570 nm light. IC50 values were calculated by comparing the measured fluorescence at 615 nm ratio relative to control wells pre-quenched w/stop buffer (100% inhibition) and no inhibitor (0% inhibition) controls as using non-linear least square four parameter fits and either Genedata or GraphPad Prism (GraphPad Software, Inc.).

In test [1] the target is T2, human TREX2 (residues M44-A279) (Homo sapiens, UniProt Q9BQ50).
T2 construct: human TREX2 (residues M44-A279, expressed in E. coli); made in house; host or cells: E. coli
T2 sequence (Q9BQ50 44-279 isoform Q9BQ50-1): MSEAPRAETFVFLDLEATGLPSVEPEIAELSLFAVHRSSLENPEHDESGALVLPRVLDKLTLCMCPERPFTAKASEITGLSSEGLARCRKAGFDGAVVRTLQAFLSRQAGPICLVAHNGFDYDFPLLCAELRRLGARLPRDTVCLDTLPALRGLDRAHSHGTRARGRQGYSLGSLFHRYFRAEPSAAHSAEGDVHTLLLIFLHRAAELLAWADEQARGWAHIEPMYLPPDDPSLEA
The test can be described thus: TREX2 Biochemical Assay (fluorescence, dsDNA substrate degradation). The settings on record: 2.5 nM TREX2, 60 nM dsDNA substrate, 25 minutes at room temperature. On the procedure:
Degradation of the dsDNA liberates free fluorophore to produce a fluorescent signal. Specifically, 7.5 μL of N-terminally His-Tev tagged human TREX2 (residues M44-A279, expressed in E. coli and purified in house) in reaction buffer (50 mM Tris (pH 7.4), 150 mM NaCl, 2 mM DTT, 0.1 mg/mL BSA, 0.01% (v/v) Tween-20 and 100 mM MgCl2) was added to a 384-well Black ProxiPlate Plus (Perkin Elmer) which already contained compound (150 nL) at varying concentrations as a 10 point dose-response in DMSO. To this was added 7.5 μL of dsDNA substrate (Strand A: 5′ TEX615/GCT AGG CAG 3′; Strand B: 5′ CTG CCT AGC/IAbRQSp (IDT)) in reaction buffer. Final concentrations were 2.5 nM TREX2, 60 nM dsDNA substrate in reaction buffer with 1.0% DMSO (v/v). After 25 minutes at room temperature, reactions were quenched by the addition of 5 μL of stop buffer (same as reaction buffer plus 200 mM EDTA). Final concentrations in the quenched reaction mixture were […] TREX2, 45 nM DNA and 50 mM EDTA in a volume of 20 μL. After a 5-minute incubation at room temperature, plates were read in a laser sourced Envision (Perkin-Elmer), measuring fluorescence at 615 nm following excitation w/570 nm light. IC50 values were calculated by comparing the measured fluorescence at 615 nm ratio relative to control wells pre-quenched w/stop buffer (100% inhibition) and no inhibitor (0% inhibition) controls as using non-linear least square four parameter fits and either Genedata or GraphPad Prism (GraphPad Software, Inc.).

Where only a bound is given, the exact number is not on record here.

As to `CN(c1nc(C(=O)Nc2cnnn2C)c(O)c(=O)n1C)C(c1ccccc1)c1ccccc1` [Example 34, 2-(benzhydryl(methyl)amino)-5-hydroxy-1-methyl-N-(1-methyl-1H-1,2,3-triazol-5-yl)-6-oxo-1,6-dihydropyrimidine-4-carboxamide], the IC50 (against full length human TREX1; in test [1]) was 1000 to 10000 nM in each case.

Take `CN(c1nc(C(=O)Nc2cncs2)c(O)c(=O)n1C)C(c1ccccc1)c1ccccc1` [Example 31, 2-(benzhydryl(methyl)amino)-5-hydroxy-1-methyl-6-oxo-N-(thiazol-5-yl)-1,6-dihydropyrimidine-4-carboxamide]: the results for the half-inhibitory concentration (IC50) (at full length human TREX1; in test [1]) were 100 to 1000 nM and 1000 to 10000 nM, respectively.

For `CN(c1nc(C(=O)NC2CC(F)(F)C2)c(O)c(=O)n1C)C(c1ccccc1)c1ccccc1` [Example 2, 2-(benzhydryl(methyl)amino)-N-(3,3-difluorocyclobutyl)-5-hydroxy-1-methyl-6-oxo-1,6-dihydropyrimidine-4-carboxamide], the IC50 (commonly the midpoint of a concentration-inhibition curve) against full length human TREX1 lay within 1000 to 10000 nM; in test [1], 10000 to 100000 nM.

`CN(c1nc(C(=O)Nc2ccccc2)c(O)c(=O)n1C)C(c1ccccc1)c1ccccc1` [Example 15, 2-(benzhydryl(methyl)amino)-5-hydroxy-1-methyl-6-oxo-N-phenyl-1,6-dihydropyrimidine-4-carboxamide]: the IC50 against full length human TREX1 is < 100 nM; in test [1] it was < 1000 nM.

Take `CN(c1nc(C(=O)NCCC(F)(F)F)c(O)c(=O)n1C)C(c1ccccc1)c1ccccc1` [Example 13, 2-(benzhydryl(methyl)amino)-5-hydroxy-1-methyl-6-oxo-N-(3,3,3-trifluoropropyl)-1,6-dihydropyrimidine-4-carboxamide]: the half-maximal inhibitory concentration (IC50) against full length human TREX1 was 100 to 1000 nM; in test [1] it was 10000 to 100000 nM.

Consider `CN(c1nc(C(=O)Nc2cc(F)ccn2)c(O)c(=O)n1C)C(c1ccccc1)c1ccccc1` [Example 23, 2-(benzhydryl(methyl)amino)-N-(4-fluoropyridin-2-yl)-5-hydroxy-1-methyl-6-oxo-1,6-dihydropyrimidine-4-carboxamide], for which the IC50 (against full length human TREX1; in test [1]) was 1000 to 10000 nM throughout.

As to `CN(c1nc(C(=O)Nc2cccc(F)c2)c(O)c(=O)n1C)C(c1ccccc1)c1ccccc1` [Example 16, 2-(benzhydryl(methyl)amino)-N-(3-fluorophenyl)-5-hydroxy-1-methyl-6-oxo-1,6-dihydropyrimidine-4-carboxamide], the values for the IC50 (against full length human TREX1; in test [1]) were < 100 nM and < 1000 nM, respectively.

Take `CN(c1nc(C(=O)NCC2CC2)c(O)c(=O)n1C)C(c1ccccc1)c1ccccc1` [Example 14, 2-(benzhydryl(methyl)amino)-N-(cyclopropylmethyl)-5-hydroxy-1-methyl-6-oxo-1,6-dihydropyrimidine-4-carboxamide]: the half-maximal inhibitory concentration (IC50) was in the range of 100 to 1000 nM against full length human TREX1 and 1000 to 10000 nM in test [1].

With `CN(c1nc(C(=O)Nc2ccccc2F)c(O)c(=O)n1C)C(c1ccccc1)c1ccccc1` [Example 17, 2-(benzhydryl(methyl)amino)-N-(2-fluorophenyl)-5-hydroxy-1-methyl-6-oxo-1,6-dihydropyrimidine-4-carboxamide], the concentration for half-maximal inhibition (IC50) was < 100 nM against full length human TREX1 and < 1000 nM in test [1].

As for `CN(c1nc(C(=O)Nc2ccc(F)c(F)c2)c(O)c(=O)n1C)C(c1ccccc1)c1ccccc1` [Example 20, 2-(benzhydryl(methyl)amino)-N-(3,4-difluorophenyl)-5-hydroxy-1-methyl-6-oxo-1,6-dihydropyrimidine-4-carboxamide], the IC50 against full length human TREX1 is 100 to 1000 nM; in test [1] it was < 1000 nM.

Regarding `CN(c1nc(C(=O)Nc2nnco2)c(O)c(=O)n1C)C(c1ccccc1)c1ccccc1` [Example 38, 2-(benzhydryl(methyl)amino)-5-hydroxy-1-methyl-N-(1,3,4-oxadiazol-2-yl)-6-oxo-1,6-dihydropyrimidine-4-carboxamide], the IC50 was in the range of 1000 to 10000 nM against full length human TREX1 and 10000 to 100000 nM in test [1].

In the case of `Cc1nocc1NC(=O)c1nc(N(C)C(c2ccccc2)c2ccccc2)n(C)c(=O)c1O` [Example 32, 2-(benzhydryl(methyl)amino)-5-hydroxy-1-methyl-N-(3-methylisoxazol-4-yl)-6-oxo-1,6-dihydropyrimidine-4-carboxamide], the values for the half-inhibitory concentration (IC50) (on full length human TREX1; in test [1]) were < 100 nM and 1000 to 10000 nM, respectively.

With `C=C(C)CNC(=O)c1nc(N(C)C(c2ccccc2)c2ccccc2)n(C)c(=O)c1O` [Example 5, 2-(benzhydryl(methyl)amino)-5-hydroxy-1-methyl-N-(2-methylallyl)-6-oxo-1,6-dihydropyrimidine-4-carboxamide], the concentration for half-maximal inhibition (IC50) against full length human TREX1 was in the range of 1000 to 10000 nM; in test [1], 10000 to 100000 nM.

For `Cc1noc(C)c1NC(=O)c1nc(N(C)C(c2ccccc2)c2ccccc2)n(C)c(=O)c1O` [Example 33, 2-(benzhydryl(methyl)amino)-N-(3,5-dimethylisoxazol-4-yl)-5-hydroxy-1-methyl-6-oxo-1,6-dihydropyrimidine-4-carboxamide], the IC50 on full length human TREX1 lay in the range of 100 to 1000 nM; in test [1], 10000 to 100000 nM.

As for `CN(c1nc(C(=O)Nc2cccc(C(F)(F)F)c2)c(O)c(=O)n1C)C(c1ccccc1)c1ccccc1` [Example 27, 2-(benzhydryl(methyl)amino)-5-hydroxy-1-methyl-6-oxo-N-(3-(trifluoromethyl)phenyl)-1,6-dihydropyrimidine-4-carboxamide], the 50% inhibitory concentration (IC50) at full length human TREX1 was > 10000 nM; in test [1], 10000 to 100000 nM.

With `CN(c1nc(C(=O)Nc2ccc(F)cc2)c(O)c(=O)n1C)[C@H](c1ccccc1)c1ccccc1Cl` (stereo in doubt) [Example 29, 2-(((2-chlorophenyl)(phenyl)methyl)(methyl)amino)-N-(4-fluorophenyl)-5-hydroxy-1-methyl-6-oxo-1,6-dihydropyrimidine-4-carboxamide], the 50% inhibitory concentration (IC50) at full length human TREX1 was 100 to 1000 nM; in test [1] it was < 1000 nM.

As to `CN(c1nc(C(=O)Nc2ccc(F)cc2)c(O)c(=O)n1C)[C@@H](c1ccccc1)c1ccccc1Cl` [Example 30, (S)-2-(((2-chlorophenyl)(phenyl)methyl)(methyl)amino)-N-(4-fluorophenyl)-5-hydroxy-1-methyl-6-oxo-1,6-dihydropyrimidine-4-carboxamide], the half-inhibitory concentration (IC50) is 100 to 1000 nM at full length human TREX1 and < 1000 nM in test [1].

On to `CN(c1nc(C(=O)NCC(F)(F)F)c(O)c(=O)n1C)C(c1ccccc1)c1ccccc1` [Example 1, 2-(benzhydryl(methyl)amino)-5-hydroxy-1-methyl-6-oxo-N-(2,2,2-trifluoroethyl)-1,6-dihydropyrimidine-4-carboxamide], for which the results for the 50% inhibitory concentration (IC50) (at full length human TREX1; in test [1]) were 1000 to 10000 nM and 10000 to 100000 nM, respectively.
